Source: US10377791B2, “Therapeutically active estratrienthiazole derivatives as inhibitors of 17 B-hydroxysteroid dehydrogenase, type 1” (FORENDO PHARMA LTD, priority 2013, dated 2019)

How the values were obtained:
[1] = target: T1, recombinant human 17β-HSD1 (Homo sapiens, UniProt P14061); assay: Inhibition of recombinant human 17β-HSD1; type: biochemical; conditions: inhibitor at 1 μM, 30 nM estrone, 1 mM NADPH, 30 min at RT; for inhibition at 1 µM: read-out: 17β-HDS1 Inhibition % at 1 μM
T1 construct: made in house; host or cells: Sd9 (Sf9) insect cells, baculovirus (Bac to Bac Expression System)
T1 sequence (P14061 1-328): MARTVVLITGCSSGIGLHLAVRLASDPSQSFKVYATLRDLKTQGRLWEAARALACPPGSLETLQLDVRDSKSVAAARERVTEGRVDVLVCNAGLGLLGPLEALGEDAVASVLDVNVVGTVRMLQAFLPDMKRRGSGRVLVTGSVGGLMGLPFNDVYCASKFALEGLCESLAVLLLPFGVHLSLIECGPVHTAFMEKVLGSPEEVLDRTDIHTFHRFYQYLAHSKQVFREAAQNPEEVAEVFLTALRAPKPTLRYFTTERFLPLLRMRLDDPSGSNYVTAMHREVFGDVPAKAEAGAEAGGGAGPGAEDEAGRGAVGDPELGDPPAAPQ
Method: Recombinant baculovirus was generated by the “Bac to Bac Expression System” (Invitrogen). Recombinant bacmid was transfected to Sd9 insect cells using “Cellfectin Reagent” (Invitrogen). 60 h later cells were harvested; the microsomal fraction was isolated as described by Puranen, T. J., Poutanen, M. H., Peltoketo, H. E., Vihko, P. T. and Vihko, R. K. (1994) Site-directed mutagenesis of the putative active site of human 17 β-hydroxysteroid dehydrogenase type 1. Biochem. J. 304: 289-293. Aliquots were stored frozen until determination of enzymatic activity.
Recombinant protein (1 μg/ml) was incubated in 20 mM KH2PO4 pH 7.4 with 30 nM estrone (including 800 000 cpm/ml of ^3H-estrone) and 1 mM NADPH for 30 min at RT, in the presence of the potential inhibitor at concentrations 1 μM or 0.1 μM. Inhibitor stock solutions were prepared in DMSO. Final concentration of DMSO was adjusted to 1% in all samples. The enzyme reaction was stopped by addition of 10% trichloroacetic acid (final concentration). Samples were centrifuged in a microtiter plate at 4000 rpm for 10 min. Supernatants were applied to reverse phase HPLC on a Waters Symmetry C18 column, equipped with a Waters Sentry Guard column. Isocratic HPLC runs were performed at RT at a flow rate of 1 ml/min in acetonitrile:water 48:52 as running solvent. Radioactivity was monitored in the eluate by a Packard Flow Scintillation Analyzer. Total radioactivity for estrone and estradiol were determined in each sample and percent conversion of estrone to estradiol was calculated according to the following formula:
(§1) [formula] Percent inhibition was calculated flowingly: % inhibition=100−% conversion

[2] = target: T2, recombinant human 17β-HSD2 (Homo sapiens, UniProt P37059); assay: Inhibition of recombinant human 17β-HSD2; type: biochemical; conditions: inhibitor at 1 μM, 50 nM estradiol, 1 mM NADH, 30 min at RT; for inhibition at 1 µM: read-out: 17β-HSD2 Inhibition % at 1 μM
T2 construct: made in house; host or cells: Sd9 (Sf9) insect cells, baculovirus (Bac to Bac Expression System)
T2 sequence (P37059 1-387): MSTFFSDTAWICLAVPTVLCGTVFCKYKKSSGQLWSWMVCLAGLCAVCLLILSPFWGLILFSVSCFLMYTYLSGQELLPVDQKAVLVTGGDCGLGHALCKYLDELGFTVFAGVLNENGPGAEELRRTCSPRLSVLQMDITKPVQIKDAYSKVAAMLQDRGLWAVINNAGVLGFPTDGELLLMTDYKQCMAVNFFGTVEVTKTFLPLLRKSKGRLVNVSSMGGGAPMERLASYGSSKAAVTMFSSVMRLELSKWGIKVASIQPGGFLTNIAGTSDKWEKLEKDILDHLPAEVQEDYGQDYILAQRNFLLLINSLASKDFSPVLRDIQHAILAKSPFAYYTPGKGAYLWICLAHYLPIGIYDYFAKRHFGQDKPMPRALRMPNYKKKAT
Method: Similarly to 17β-HSD1 the Recombinant baculovirus was generated by the “Bac to Bac Expression System” (Invitrogen). Recombinant bacmid was transfected to Sd9 insect cells using “Cellfectin Reagent” (Invitrogen). 60 h later cells were harvested and supernatant were fractionated by the following protocol: • cells were dissolved into 40 ml of A-buffer (40 mM TRIS, pH8.0, 20% glycerol, 20 μM NAD, 0.4 mM PMSF, 150 mM NaCl, 0.5% dodecyl-β-maltoside+protease inhibitor cocktail) • cells were sonicated • lysate was incubated on ice for 15 min • lysate was centrifuged 5000 rpm 15 min, +4° C. • centrifugation of the supernatant 180 000 g 30 min, +4° C. • pellet was dissolved into 8 ml of A-buffer • not resuspended material was removed by centrifugation 5000 rpm 15 min, +4° C. • the clear supernatant was divided into 100 μl aliquots and were stored frozen until determination of enzymatic activity.
The amount of 17β-HSD2 was analysed by immunoblotting and total protein concentration of each extract batch was determined.
Recombinant protein (4 μg/ml) was incubated in 20 mM KH2PO4 pH 8.5 with 50 nM estradiol (including 800 000 cpm/ml of ^3H-estradiol) and 1 mM NADH for 30 min at RT, in the presence of the potential inhibitor at concentrations 1 μM or 0.1 μM. Inhibitor stock solutions were prepared in DMSO. Final concentration of DMSO was adjusted to 1% in all samples. The enzyme reaction was stopped by addition of 10% trichloroacetic acid (final concentration). Samples were centrifuged in a microtiter plate at 4000 rpm for 10 min. Supernatants were applied to reverse phase HPLC on a Waters Symmetry C18 column, equipped with a Waters Sentry Guard column. Isocratic HPLC runs were performed at RT at a flow rate of 1 ml/min in acetonitrile:water 48:52 as running solvent. Radioactivity was monitored in the eluate by a Packard Flow Scintillation Analyzer. Total radioactivity for estrone and estradiol were determined in each sample and percent conversion of estradiol to estrone was calculated according to the following formula:
as §1

Row | Compound | inhibition at 1 µM [1] | inhibition at 1 µM [2] | 17β-HDS1 Inhibition % at 1 μM [1] | 17β-HSD2 Inhibition % at 1 μM [2]
1 | CC(=O)Oc1ccccc1C(=O)Oc1ccc2c(c1)CCC1C2CC[C@]2(C)C(=O)C[C@@H](CCC(=O)Nc3ncc(C)s3)C12 (stereo partly drawn) [Compound 19, 2-Acetoxy-benzoic acid (13S,15R)-13-methyl-15-[2-(5-methylthiazol-2-ylcarbamoyl)-ethyl]-17-oxo-7,8,9,11,12,13,14,15,16,17-decahydro-6H-cyclopenta[a]phenanthren-3-yl ester] | 58% | 0% |  | 
2 | Cc1cnc(NC(=O)CC[C@@H]2CC(=O)[C@@]3(C)CCC4c5ccc(O)c(I)c5CCC4C23)s1 (stereo partly drawn) [Compound 54, 3-((13S,15R)-3-hydroxy-4-iodo-13-methyl-17-oxo-7,8,9,11,12,13,14,15,16,17-decahydro-6H-cyclopenta[a]phenanthren-15-yl)-N-(5-methylthiazol-2-yl)propanamide] | 86% | 4% |  | 
3 | Cc1ccc(S(=O)(=O)Oc2ccc3c(c2)CCC2C3CC[C@]3(C)C(=O)C[C@@H](CCC(=O)Nc4ncc(C)s4)C23)cc1 (stereo partly drawn) [Compound 27, Toluene-4-sulphonic acid (13S,15R)-13-methyl-15-[2-(5-methylthiazol-2-ylcarbamoyl)-ethyl]-17-oxo-7,8,9,11,12,13,14,15,16,17-decahydro-6H-cyclopenta[a]phenanthren-3-yl ester] | 81% | 5% |  | 
4 | Cc1cnc(NC(=O)CC[C@@H]2CC(=O)[C@@]3(C)CCC4c5cc(N)ccc5CCC4C23)s1 (stereo partly drawn) [Compound 87, 3-((13S,15R)-2-amino-13-methyl-17-oxo-7,8,9,11,12,13,14,15,16,17-decahydro-6H-cyclopenta[a]phenanthren-15-yl)-N-(5-methylthiazol-2-yl)propanamide] | 87% | 2% |  | 
5 | Cc1cnc(NC(=O)CC[C@@H]2CC(=O)[C@@]3(C)CCC4c5ccc(O)c(C#N)c5CCC4C23)s1 (stereo partly drawn) [Compound 92, 3-((13S,15R)-4-cyano-3-hydroxy-13-methyl-17-oxo-7,8,9,11,12,13,14,15,16,17-decahydro-6H-cyclopenta[a]phenanthren-15-yl)-N-(5-methylthiazol-2-yl)propanamide] | 97% | 0% |  | 
6 | Cc1cnc(NC(=O)CC[C@@H]2CC(=O)[C@@]3(C)CCC4c5ccc(OP(=O)([O-])[O-])cc5CCC4C23)s1.[Na+].[Na+] (stereo partly drawn) [Compound 8, Phosphoric acid mono-{(13S,15R)-13-methyl-15-[2-(5-methylthiazol-2-ylcarbamoyl)-ethyl]-17-oxo-7,8,9,11,12,13,14,15,16,17-decahydro-6H-cyclopenta[a]phenanthren-3-yl} ester disodium salt] |  |  | 81% | 0%
7 | Cc1cnc(NC(=O)CC[C@@H]2CC(=O)[C@@]3(C)CCC4c5ccc(OS(=O)(=O)C(F)(F)F)cc5CCC4C23)s1 (stereo partly drawn) [Compound 79, (13S,15R)-13-methyl-15-(3-((5-methylthiazol-2-yl)amino)-3-oxopropyl)-17-oxo-7,8,9,11,12,13,14,15,16,17-decahydro-6H-cyclopenta[a]phenanthren-3-yl trifluoromethanesulfonate] | 72% | 0% |  | 
8 | Cc1cnc(NC(=O)CC[C@@H]2CC(=O)[C@@]3(C)CCC4c5cc6[nH]c(=O)oc6cc5CCC4C23)s1 (stereo partly drawn) [Compound 50, 3-((3R,12aS)-12a-methyl-1,8-dioxo-2,3,3a,3b,4,5,8,9,10b,11,12,12a-dodecahydro-1H-cyclopenta[7,8]phenanthro[3,2-d]oxazol-3-yl)-N-(5-methylthiazol-2-yl)propanamide] | 91% | 40% |  | 
9 | Cc1cnc(NC(=O)CC[C@@H]2CC(=O)[C@@]3(C)CCC4c5ccc6ocnc6c5CCC4C23)s1 (stereo partly drawn) [Compound 46, 3-((7aS,10R)-7a-methyl-8-oxo-6,7,7a,8,9,10,10a,10b,11,12-decahydro-5bH-cyclopenta[7,8]phenanthro[1,2-d]oxazol-10-yl)-N-(5-methylthiazol-2-yl)propanamide] | 87% | 3% |  | 
10 | Cc1cnc(NC(=O)CC[C@@H]2CC(=O)[C@@]3(C)CCC4c5cc6ncoc6c(F)c5CCC4C23)s1 (stereo partly drawn) [Compound 78, 3-((3R,12aS)-6-fluoro-12a-methyl-1-oxo-2,3,3a,3b,4,5,10b,11,12,12a-decahydro-1H-cyclopenta[7,8]phenanthro[3,2-d]oxazol-3-yl)-N-(5-methylthiazol-2-yl)propanamide] | 91% | 1% |  | 
11 | Cc1cnc(NC(=O)CC[C@@H]2CC(=O)[C@@]3(C)CCC4c5cccc(C(C)(C)C)c5CCC4C23)s1 (stereo partly drawn) [Compound 105, 3-((13S,15R)-4-(tert-butyl)-13-methyl-17-oxo-7,8,9,11,12,13,14,15,16,17-decahydro-6H-cyclopenta[a]phenanthren-15-yl)-N-(5-methylthiazol-2-yl)propanamide] | 90% | 16% |  | 
12 | Cc1cnc(NC(=O)CC[C@@H]2CC(=O)[C@@]3(C)CCC4c5cc([N+](=O)[O-])c(O)c(Cl)c5CCC4C23)s1 (stereo partly drawn) [Compound 75, 3-((13S,15R)-4-chloro-3-hydroxy-13-methyl-2-nitro-17-oxo-7,8,9,11,12,13,14,15,16,17-decahydro-6H-cyclopenta[a]phenanthren-15-yl)-N-(5-methylthiazol-2-yl)propanamide] | 89% | 2% |  | 
13 | CC(=O)Oc1ccc2c(c1)CCC1C2CC[C@]2(C)C(=O)C[C@@H](CCC(=O)Nc3ncc(C)s3)C12 (stereo partly drawn) [Compound 1, Acetic acid (13S,15R)-13-methyl-15-[2-(5-methylthiazol-2-ylcarbamoyl)-ethyl]-17-oxo-7,8,9,11,12,13,14,15,16,17-decahydro-6H-cyclopenta[a]phenanthren-3-yl ester] | 92% | 13% |  | 
14 | Cc1cnc(NC(=O)CC[C@@H]2CC(=O)[C@@]3(C)CCC4c5cc(Br)c(O)cc5CCC4C23)s1 (stereo partly drawn) [Compound 56, 3-((13S,15R)-2-bromo-3-hydroxy-13-methyl-17-oxo-7,8,9,11,12,13,14,15,16,17-decahydro-6H-cyclopenta[a]phenanthren-15-yl)-N-(5-methylthiazol-2-yl)propanamide] | 93% | 18% |  | 
